The assay deals with CD2F1 mice, L1210 leukemia ip, survival T/C. In words: NCI In Vivo Anticancer Drug Screen. Data for tumor model L1210 Leukemia (intraperitoneal) in CD2F1 (CDF1) mice. As to conditions: higher = longer survival. An outline of the steps: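 In this screen, transplantable tumors were grown in mice given either the compound or its vehicle. Results were expressed as the treated measurement relative to the control measurement.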

Where [1] appears, read: endpoint: mean survival time, dose: 100.0 mg/kg/injection, schedule: Q01DX009 (ip), vehicle: saline.
The mark [2] stands for this setting: endpoint: mean survival time, dose: 200.0 mg/kg/injection, schedule: Q01DX009 (ip), vehicle: saline.
The mark [3] stands for this setting: endpoint: mean survival time, dose: 100.0 mg/kg/injection, schedule: Q04DX003 (ip), vehicle: saline with Tween-80.
The mark [4] stands for this setting: endpoint: mean survival time, dose: 200.0 mg/kg/injection, schedule: Q04DX003 (ip), vehicle: saline with Tween-80.
Where [5] appears, read: endpoint: mean survival time, dose: 400.0 mg/kg/injection, schedule: Q04DX003 (ip), vehicle: saline with Tween-80.
[6] abbreviates: endpoint: median survival time, dose: 25.0 mg/kg/injection, schedule: Q01DX009 (ip), vehicle: saline.
The mark [7] stands for this setting: endpoint: mean survival time, dose: 100.0 mg/kg/injection, schedule: Q01DX001 (ip), vehicle: saline with Tween-80.
Setting [8] is: endpoint: mean survival time, dose: 200.0 mg/kg/injection, schedule: Q01DX001 (ip), vehicle: saline with Tween-80.
The mark [9] stands for this setting: endpoint: mean survival time, dose: 400.0 mg/kg/injection, schedule: Q01DX001 (ip), vehicle: saline with Tween-80.
The mark [10] stands for this setting: endpoint: mean survival time, dose: 25.0 mg/kg/injection, schedule: Q04DX002 (ip), vehicle: saline with Tween-80.
[11] abbreviates: endpoint: mean survival time, dose: 50.0 mg/kg/injection, schedule: Q04DX002 (ip), vehicle: saline with Tween-80.
The mark [12] stands for this setting: endpoint: mean survival time, dose: 100.0 mg/kg/injection, schedule: Q01DX009 (ip), vehicle: saline with Tween-80.
Where [13] appears, read: endpoint: mean survival time, dose: 200.0 mg/kg/injection, schedule: Q01DX009 (ip), vehicle: saline with Tween-80.
Setting [14] is: endpoint: mean survival time, dose: 400.0 mg/kg/injection, schedule: Q01DX009 (ip), vehicle: saline with Tween-80.

Values joined by “and” are separate entries in the source; they are usually repeats but may differ in a detail not shown here. Equal entries are not always repeated. Toxic doses and inconclusive results are not listed.

`O=C1/C(=C/c2cccc([N+](=O)[O-])c2)CCc2ccccc21`: the T/C under setting [1] was 94 % of control; the T/C under setting [2] is 97 % of control; the T/C (endpoint: mean survival time, dose: 400.0 mg/kg/injection, schedule: Q01DX009 (ip), vehicle: saline) was 91 % of control.

Consider `O=c1cc[nH]c(=S)[nH]1.[Pd]`, for which the T/C was 101 % of control (endpoint: mean survival time, dose: 3.13 mg/kg/injection, schedule: Q04DX003 (ip), vehicle: distilled water + Tween-80); 101 % of control (endpoint: mean survival time, dose: 6.25 mg/kg/injection, schedule: Q04DX003 (ip), vehicle: distilled water + Tween-80); 96 % of control (endpoint: mean survival time, dose: 12.5 mg/kg/injection, schedule: Q04DX003 (ip), vehicle: distilled water + Tween-80); 98 % of control (endpoint: mean survival time, dose: 25.0 mg/kg/injection, schedule: Q04DX003 (ip), vehicle: distilled water + Tween-80); 95 % of control (endpoint: mean survival time, dose: 50.0 mg/kg/injection, schedule: Q04DX003 (ip), vehicle: distilled water + Tween-80); 90 % of control (endpoint: mean survival time, dose: 100.0 mg/kg/injection, schedule: Q04DX003 (ip), vehicle: distilled water + Tween-80). For the same compound, the T/C (endpoint: mean survival time, dose: 200.0 mg/kg/injection, schedule: Q04DX003 (ip), vehicle: distilled water + Tween-80) was 90 % of control.

Regarding `O=C(CCCN1CCN2Cc3[nH]c4ccccc4c3CC2C1)c1ccc(F)cc1` (stereo not drawn), the T/C reads like this: (endpoint: mean survival time, dose: 25.0 mg/kg/injection, schedule: Q04DX003 (ip), vehicle: saline with Tween-80) 101 % of control; (endpoint: mean survival time, dose: 50.0 mg/kg/injection, schedule: Q04DX003 (ip), vehicle: saline with Tween-80) 107 % of control; under setting [3], 103 % of control.

On to `C=CCOc1ccc(OC)cc1`, for which the T/C by setting is: under setting [3], 97 % of control; under setting [4], 97 % of control; under setting [5], 92 % of control.

As to `Nc1ccn([C@@H](C=O)C[C@@H](C=O)CO)c(=O)n1`, the T/C under setting [6] is 107 % of control; the T/C (endpoint: median survival time, dose: 50.0 mg/kg/injection, schedule: Q01DX009 (ip), vehicle: saline) is 121 % of control and 112 % of control; the T/C (endpoint: median survival time, dose: 100.0 mg/kg/injection, schedule: Q01DX009 (ip), vehicle: saline) was 121 % of control and 124 % of control; the T/C (endpoint: median survival time, dose: 400.0 mg/kg/injection, schedule: Q01DX009 (ip), vehicle: saline) was 153 % of control and 161 % of control.

For `NC(Cc1c[nH]c2ccccc12)C(=O)O` (stereo not drawn), the T/C (endpoint: mean survival time, dose: 50.0 mg/kg/injection, schedule: Q01DX001 (ip), vehicle: saline with Tween-80) is 98 % of control; the T/C under setting [7] is 98 % of control; the T/C under setting [8] is 101 % of control.

With `O=C(Nc1ccc(Nc2ccncc2)cc1)c1ccc(Nc2ccnc3ccccc23)cc1[N+](=O)[O-]`, the T/C reads like this: under setting [7], 98 % of control; under setting [8], 96 % of control; under setting [9], 95 % of control.

For the compound `O=c1c2cccc3cccc(c32)c2c3c(nn12)CCCC3`, the T/C by setting is: (endpoint: mean survival time, dose: 12.5 mg/kg/injection, schedule: Q04DX002 (ip), vehicle: saline with Tween-80) 102 % of control; under setting [10], 98 % of control; under setting [11], 94 % of control.

Take `O=S(=O)(Nc1ccc(NS(=O)(=O)c2ccccc2)c2ccccc12)c1ccccc1`: the T/C by setting is: under setting [3], 97 % of control; under setting [4], 91 % of control; under setting [5], 96 % of control.

On to `COc1ccc2c(ccc3nc(C)[nH]c(=O)c32)c1`, for which the T/C is 102 % of control (endpoint: mean survival time, dose: 25.0 mg/kg/injection, schedule: Q01DX001 (ip), vehicle: Klucel (hydroxypropylcellulose) (HPC)); 94 % of control (endpoint: mean survival time, dose: 50.0 mg/kg/injection, schedule: Q01DX001 (ip), vehicle: Klucel (hydroxypropylcellulose) (HPC)); 90 % of control (endpoint: mean survival time, dose: 100.0 mg/kg/injection, schedule: Q01DX001 (ip), vehicle: Klucel (hydroxypropylcellulose) (HPC)).

For the compound `COc1cccc(C#Cc2ccccc2NC(C)=O)c1`, the T/C under setting [12] was 91 % of control, the T/C under setting [13] is 86 % of control and the T/C under setting [14] was 94 % of control.

`CS(=O)(=O)CS(=O)(=O)OCCF`: the T/C reads like this: (endpoint: median survival time, dose: 3.12 mg/kg/injection, schedule: Q01DX009 (ip), vehicle: saline) 112 % of control; (endpoint: median survival time, dose: 3.13 mg/kg/injection, schedule: Q01DX009 (ip), vehicle: saline) 119 % of control; (endpoint: median survival time, dose: 12.5 mg/kg/injection, schedule: Q01DX009 (ip), vehicle: saline) 179 % of control and 189 % of control; under setting [6], 182 % of control and 349 % of control.

As to `Cc1ccc(-n2c(=S)[nH]c3ccccc3c2=O)cc1F`, the T/C under setting [7] was 92 % of control; the T/C under setting [12] is 88 % of control; the T/C under setting [8] was 92 % of control; the T/C under setting [13] is 88 % of control; the T/C under setting [9] is 89 % of control; the T/C under setting [14] was 93 % of control.

With `CC1CCC2(OC1)OC1C(O)C3C4CCC5CC(OC6OC(CO)C(OC7OC(CO)C(O)C(OC8OCC(O)C(O)C8O)C7OC7OC(CO)C(O)C(OC8OC(CO)C(O)C(O)C8O)C7O)C(O)C6O)C(O)CC5(C)C4CCC3(C)C1C2C` (stereo not drawn), the T/C is 92 % of control (endpoint: mean survival time, dose: 5.0 mg/kg/injection, schedule: Q01DX009 (ip), vehicle: saline); 96 % of control (endpoint: mean survival time, dose: 6.25 mg/kg/injection, schedule: Q01DX001 (ip), vehicle: saline with Tween-80); 93 % of control (endpoint: mean survival time, dose: 10.0 mg/kg/injection, schedule: Q01DX009 (ip), vehicle: saline); 103 % of control (endpoint: mean survival time, dose: 12.5 mg/kg/injection, schedule: Q01DX001 (ip), vehicle: saline with Tween-80); 96 % of control (endpoint: mean survival time, dose: 20.0 mg/kg/injection, schedule: Q01DX009 (ip), vehicle: saline); 100 % of control (endpoint: mean survival time, dose: 25.0 mg/kg/injection, schedule: Q01DX001 (ip), vehicle: saline with Tween-80). Further, where the note is “endpoint: mean survival time, dose: 40.0 mg/kg/injection, schedule: Q01DX009 (ip), vehicle: saline”, the T/C is 102 % of control.

Consider `O=C(COc1ccccc1-c1ccccc1)Nc1ccccc1-c1ccccc1`, for which the T/C by setting is: under setting [10], 98 % of control; under setting [11], 98 % of control; (endpoint: mean survival time, dose: 100.0 mg/kg/injection, schedule: Q04DX002 (ip), vehicle: saline with Tween-80) 94 % of control.

On to `CC(CCC(=O)c1ccccc1)c1ccc2ccccc2c1` (stereo not drawn), for which the T/C by setting is: (endpoint: mean survival time, dose: 100.0 mg/kg/injection, schedule: Q01DX009 (ip), vehicle: Klucel (hydroxypropylcellulose) (HPC)) 92 % of control; (endpoint: mean survival time, dose: 100.0 mg/kg/injection, schedule: Q04DX003 (ip), vehicle: Klucel (hydroxypropylcellulose) (HPC)) 106 % of control; (endpoint: mean survival time, dose: 200.0 mg/kg/injection, schedule: Q01DX009 (ip), vehicle: Klucel (hydroxypropylcellulose) (HPC)) 100 % of control; (endpoint: mean survival time, dose: 200.0 mg/kg/injection, schedule: Q04DX003 (ip), vehicle: Klucel (hydroxypropylcellulose) (HPC)) 104 % of control; (endpoint: mean survival time, dose: 400.0 mg/kg/injection, schedule: Q01DX009 (ip), vehicle: Klucel (hydroxypropylcellulose) (HPC)) 96 % of control; (endpoint: mean survival time, dose: 400.0 mg/kg/injection, schedule: Q04DX003 (ip), vehicle: Klucel (hydroxypropylcellulose) (HPC)) 97 % of control.

For `CCOC(=O)C#Cc1cccc(C(=O)OC)c1-c1c(I)cccc1C(=O)OC`, the T/C is 100 % of control (endpoint: median survival time, dose: 12.5 mg/kg/injection, schedule: Q04DX003 (ip), vehicle: saline with Tween-80); 100 % of control (endpoint: median survival time, dose: 25.0 mg/kg/injection, schedule: Q04DX003 (ip), vehicle: saline with Tween-80); 88 % of control (endpoint: median survival time, dose: 50.0 mg/kg/injection, schedule: Q04DX003 (ip), vehicle: saline with Tween-80); 88 % of control (endpoint: median survival time, dose: 100.0 mg/kg/injection, schedule: Q04DX003 (ip), vehicle: saline with Tween-80).

Turning to `COC(=O)N/N=C\c1ccc(O)c(OC)c1`, the T/C was 104 % of control under setting [12], 104 % of control under setting [13] and 97 % of control under setting [14].

Regarding `CCc1nc(N)nc(N)n1`, the T/C is 104 % of control (endpoint: mean survival time, dose: 50.0 mg/kg/injection, schedule: Q01DX009 (ip), vehicle: saline); 100 % of control under setting [1]; 104 % of control under setting [2].

With `CC1(C)N=C(N)N=C(N)N1c1ccc(C(=O)c2ccccc2)cc1`, the T/C under setting [3] is 91 % of control.

In the case of `O=C(OCCOCCOC(=O)N1CCOCC1)N1CCOCC1`, the T/C runs as follows: (endpoint: mean survival time, dose: 100.0 mg/kg/injection, schedule: Q04DX003 (ip), vehicle: saline) 100 % of control; (endpoint: mean survival time, dose: 200.0 mg/kg/injection, schedule: Q04DX003 (ip), vehicle: saline) 102 % of control; (endpoint: mean survival time, dose: 400.0 mg/kg/injection, schedule: Q04DX003 (ip), vehicle: saline) 96 % of control.

Values taken from PubChem BioAssay AID256 (DTP/NCI, 2004).
